What is called MIC is the smallest concentration in the dilution series that meets the test's criterion for growth inhibition.

The text below walks through data of PMC6520840, “Antimicrobial and Antibiofilm Effects of Peptides from Venom of Social Wasp and Scorpion on Multidrug-Resistant Acinetobacter baumannii” (Toxins, 2019).

In assay [1] the test system is A. baumannii isolate AB 72. To be noted: cited from earlier work. How it is done: (§1) In this work, three A. baumannii isolates previously described by Castilho et al. that were isolated from patients with hospital-acquired infections were used. Isolates AB 02 and AB 72 were resistant to ampicillin, amikacin, and ciprofloxacin. AB 53 isolate only presented resistance to ampicillin. […] Thus, AB 02 and AB 72 were considered as MDR strains. The ability to form biofilms by A. baumannii isolates AB 02, AB 53 and AB 72 was determined by crystal violet staining ...

Assay [2] deals with A. baumannii isolate AB 53. To be noted: cited from earlier work. How it is done:
as §1

The subject of assay [3] is A. baumannii isolate AB 02. To be noted: cited from earlier work. How it is done:
as §1

The test system of assay [4] is A. baumannii isolate AB 53. Nature of the assay: Minimum inhibitory concentration (MIC), broth microdilution. The assay is classed as cell-based, Acinetobacter baumannii. The conditions noted are these: peptides 25 to 1.56 μM, 24 h at 37 °C, OD 405 nm, triplicates.
Assay [5] concerns A. baumannii isolate AB 72. The assay is described as above. The conditions noted are these: peptides 25 to 1.56 μM, 24 h at 37 °C, OD 405 nm, triplicates. The assay is classed as cell-based, Acinetobacter baumannii. How it is done:
(§2) The minimum inhibitory concentration was determined by broth microdilution according to Wiegand et al.. The AB 02, […] and AB 72 isolates were grown in LB broth medium for 8 h at 37 °C until they reached a growth turbidity corresponding to 0.5 of the McFarland scale. Thirty microliters of each culture were added in the wells of polystyrene plates containing 170 µL of culture medium with different concentrations of the antimicrobial peptides. Agelaia-MPI, Polybia-MPII, Polydim-I, Con10 and NDBP 5.8 antimicrobial peptides were serially diluted from 25 to 1.56 μM. The plate containing different concentrations of individual peptides with the bacterial strains were incubated for 24 h at 37 °C, after which time the plates were read at the optical density of 405 nm. As positive control, bacterial strains without peptides were grown in the same conditions, and as negative control medium alone was used.

Assay [6] concerns A. baumannii isolate AB 02. Described as above. To be noted: peptides 25 to 1.56 μM, 24 h at 37 °C, OD 405 nm, triplicates. The assay is classed as cell-based, Acinetobacter baumannii. How it is done: as §2
For assay [7], the system named is A. baumannii isolate AB 02 biofilm. Nature of the assay: Inhibition of biofilm formation on polystyrene plates (MBEC), crystal violet. Type of assay: cell-based, Acinetobacter baumannii. The conditions noted are these: for Minimal inhibitory concentration against the formation of A. baumannii biofilm (MBEC): Isolate AB 02, polystyrene plate, LB 1/4 + 0.2% glucose, 29 °C, 24 h, crystal violet, OD 595 nm, peptides 25 to 1.56 μM. The protocol: […] [71] methodology with minor modifications. Initially, A. baumannii strains (AB 02, AB 53, and AB 72) were grown for 6 h in LB broth until reaching an optimum growth of 1.0 in the optical density of 600 nm and then the culture concentration was adjusted to 1.5 × 10^8 CFU/mL and 30 μL of the culture was added to the wells containing 170 μL de LB ¼ + 0.2% glucose containing serially diluted peptides ranging from 25 to 1.56 μM. Cells were incubated at 29 °C for 24 h to let biofilms be formed. The supernatant was removed and the wells were washed with 200 μL of PBS twice to remove the non-adherent and weakly adherent cells, maintaining only the mature biofilm formed on the plate. Biofilm quantification was measured by staining attached cells with 0.2% (w/v) violet crystal staining solubilized with ethanol/acetone (80/20 v/v) and quantified at 595 nm. The biofilms formed in cultures with different peptide concentrations were compared with the biofilms formed in cultures of A. baumannii strains without peptides. Analyses were performed in triplicate and three independent experiments were performed for each of these assays.

The test system of assay [8] is A. baumannii isolate AB 53 biofilm. The description is as above. The assay is classed as cell-based, Acinetobacter baumannii. To be noted: for Minimal inhibitory concentration against the formation of A. baumannii biofilm (MBEC): Isolate AB 53, polystyrene plate, LB 1/4 + 0.2% glucose, 29 °C, 24 h, crystal violet, OD 595 nm, peptides 25 to 1.56 μM. How it is done: (§3) In order to determine if individual peptides could avoid biofilm formation, the minimal biofilm eradication concentration (MBEC) determination assay was performed using 96-well […] plates according to Feng et al. methodology with minor modifications. Initially, A. baumannii strains (AB 02, AB 53, and AB 72) were grown for 6 h in LB broth until reaching an optimum growth of 1.0 in the optical density of 600 nm and then the culture concentration was adjusted to 1.5 × 10^8 CFU/mL and 30 μL of the culture was added to the wells containing 170 μL de LB ¼ + 0.2% glucose containing serially diluted peptides ranging from 25 to 1.56 μM. Cells were incubated at 29 °C for 24 h to let biofilms be formed. The supernatant was removed and the wells were washed with 200 μL of PBS twice to remove the non-adherent and weakly adherent cells, maintaining only the mature biofilm formed on the plate. Biofilm quantification was measured by staining attached cells with 0.2% (w/v) violet crystal staining solubilized with ethanol/acetone (80/20 v/v) and quantified at 595 nm. The biofilms formed in cultures with different peptide concentrations were compared with the biofilms formed in cultures of A. baumannii strains without peptides. Analyses were performed in triplicate and three independent experiments were performed for each of these assays.

The test system of assay [9] is A. baumannii isolate AB 72 biofilm. The description is as above. The conditions noted are these: for Minimal inhibitory concentration against the formation of A. baumannii biofilm (MBEC): Isolate AB 72, polystyrene plate, LB 1/4 + 0.2% glucose, 29 °C, 24 h, crystal violet, OD 595 nm, peptides 25 to 1.56 μM. The assay is classed as cell-based, Acinetobacter baumannii. The protocol: as §3

For the next assay, the system named is S. epidermidis biofilm. Type of assay: cell-based, Staphylococcus epidermidis. The conditions noted are these: peptide at 12.5 μM, crystal violet. The protocol: (§4) To determine the formation of the biofilm of Staphylococcus spp., the methodology according to Kwasny and Opperman (2010) with modifications was used. Staphylococcus epidermidis and methicillin-resistant Staphylococcus aureus (MRSA) cryopreserved strains at −80 °C were reactivated in solid medium to obtain an isolated colony, which was inoculated in LB medium broth and cultured at 37 °C until they reached a concentration corresponding to 0.5 turbidity of the MacFarland scale. At that concentration, 30 μL of the bacterial culture was added to wells containing 170 μL of tryptic soy broth (HiMedia) broth with 1% glucose. The plate was incubated at 37 °C for 24 h. After this period the bacterial growth was quantified by optical density reading at 600 nm and the formation of the biofilm was determined by the colorimetric method similar to that used for Acinetobacter. The biofilm inhibition test also followed the standard for the previous tests, with modifications in the culture medium used to increase the bacterial biofilm production by Staphylococcus strains.

In assay [10] the test system is methicillin-resistant S. aureus (MRSA) biofilm. The assay is classed as cell-based, Staphylococcus aureus. To be noted: peptide at 12.5 μM, crystal violet. The protocol:
as §4

No end group written: not given here.

For the compound `C[C@@H](O)[C@H]1C(=O)N2C(C(=O)O)=C(S[C@@H]3CN[C@H](C(=O)N(C)C)C3)[C@H](C)[C@H]12` [meropenem], the Antibiotic susceptibility category result in [1] and in assay [2] was “susceptible” in each case.
`CN(C)[C@@H]1C(O)=C(C(N)=O)C(=O)[C@@]2(O)C(O)=C3C(=O)c4c(O)cccc4[C@@](C)(O)[C@H]3C[C@@H]12` [tetracycline]: the Antibiotic susceptibility category entry in assay [1], in assay [2] and in assay [3] was “intermediate susceptibility” throughout.
In the case of FWSFLVKAASKILPSLIGGGDDNKSSS-NH2 [Con10], the minimal inhibitory concentration (MIC) worked out at 6.25 µM in [4], 6.25 µM in assay [5] and 12.5 µM in assay [6]. The figures for the “Minimal inhibitory concentration against the formation of A. baumannii biofilm (MBEC)” value (“Minimal inhibitory concentration” for short) in assay [7], in assay [8] and in assay [9] were 25 µM, 12.5 µM and 12.5 µM, respectively.
On to INWLKLGKMVIDAL-NH2 [Polybia-MPII], for which the minimal inhibitory concentration (MIC) in assay [4] is 6.25 µM; in [5] it was 6.25 µM; in assay [6], 12.5 µM. Further, the “Inhibition of biofilm formation” value (in the assay with S. epidermidis biofilm; in assay [10]) was 85% throughout. The “Minimal inhibitory concentration” value is 25 µM in assay [7], 12.5 µM in assay [8] and 25 µM in assay [9].
Consider AVAGEKLWLLPHLLKMLLTPTP-NH2 [Polydim-I], for which the “Minimal inhibitory concentration” value in [7], in assay [8] and in assay [9] was above 25 µM in each case.
With `CC1(C)S[C@@H]2[C@H](NC(=O)[C@H](N)c3ccccc3)C(=O)N2[C@H]1C(=O)O` [ampicillin], the Antibiotic susceptibility category result is “resistant” in assay [1], “resistance” in [2] and “resistant” in assay [3].
For the compound `O=C(O)c1cn(C2CC2)c2cc(N3CCNCC3)c(F)cc2c1=O` [ciprofloxacin], the Antibiotic susceptibility category result in [1] and in [3] was “resistant” in each case.
Take `NCC[C@H](O)C(=O)N[C@@H]1C[C@H](N)[C@@H](O[C@H]2O[C@H](CN)[C@@H](O)[C@H](O)[C@H]2O)[C@H](O)[C@H]1O[C@H]1O[C@H](CO)[C@@H](O)[C@H](N)[C@H]1O` [amikacin]: the Antibiotic susceptibility category entry in assay [1] and in assay [3] was “resistant” in each case.
GILGKIWEGVKSLI-NH2 [NDBP-5.8]: the MIC in [4], in assay [5] and in assay [6] was 25 µM throughout. Also, the “Minimal inhibitory concentration” value in assay [7] was above 25 µM; in assay [7] (listed as NBDP 5.8), 25 µM; in [8] it was above 25 µM; in assay [8] (listed as NBDP 5.8) it was 25 µM; in assay [9], above 25 µM; in [9] (listed as NBDP 5.8) it was 25 µM. The “Inhibition of the biofilm” value in assay [7] (isolate AB 02, peptide at 25 μM) is above 95%; in [8] (isolate AB 53, peptide at 25 μM), above 95%; in assay [9] (isolate AB 72, peptide at 25 μM), above 95%.
With INWLKLGKAIIDAL-NH2 [Agelaia-MPI], the values for the MIC in assay [4] and in assay [6] were 3.12 µM and 6.25 µM, respectively. Also, the “Inhibition of biofilm formation” value (with S. epidermidis biofilm; in assay [10]) was 85% each time. Moreover, the “Minimal inhibitory concentration” value was determined as 25 µM in assay [7], 6.25 µM in assay [8] and 12.5 µM in [9].
